Data published in PMC7825302, “Tetraoctylammonium, a Long Chain Quaternary Ammonium Blocker, Promotes a Noncollapsed, Resting-Like Inactivated State in KcsA” (International Journal of Molecular Sciences, 2021).
Changes are numbered by the printed parent chain.

How the values were obtained:
KcsA = biological target: T1, KcsA (Streptomyces lividans, UniProt P0A334); assay: thermal denaturation (intrinsic fluorescence) titration with fitted KD; pH […] (pH […]); assay type: binding
T1 construct: wild-type (WT) KcsA, homotetramer, His-tag purified from E. coli, in DDM detergent
T1 sequence (P0A334 1-160): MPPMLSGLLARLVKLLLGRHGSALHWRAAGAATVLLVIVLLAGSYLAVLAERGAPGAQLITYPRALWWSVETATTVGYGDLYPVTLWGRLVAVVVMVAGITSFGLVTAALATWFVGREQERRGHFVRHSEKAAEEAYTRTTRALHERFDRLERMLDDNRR

W67 KcsA = biological target: T2, W67 KcsA (Streptomyces lividans, UniProt P0A334, W113F/W26F/W68F/W87F); assay: thermal denaturation titration with fitted KD; pH […] (pH […]); effect supported by homo-FRET; assay type: binding
T2 construct: quadruple mutant KcsA with a single Trp (W67) per subunit, homotetramer, His-tag purified from E. coli, in DDM detergent

[1] = biological target: T3, wild-type KcsA potassium channel (Streptomyces lividans), P0A334; assay: SDS-PAGE; 12% SDS-PAGE of the detergent-solubilised (DDM) channel at room temperature, 10 mM Na+, pH 7.0 and pH 4.0, without or with 1 or 100 µM TOA+; details: remark: other sources report otherwise
T3 chain: T1 sequence (P0A334 1-160)

[2] = biological target: the molecule itself; assay: FRET or BRET; homo-FRET among the W67 residues of the subunits, from steady-state and time-resolved fluorescence anisotropy; 5 µM protein in 5 mM DDM, pH 7.0 or pH 4.0, K+ titrated, with or without 100 µM TOA+

T2 sequence (P0A334 whole entry W26F/W68F/W87F/W113F): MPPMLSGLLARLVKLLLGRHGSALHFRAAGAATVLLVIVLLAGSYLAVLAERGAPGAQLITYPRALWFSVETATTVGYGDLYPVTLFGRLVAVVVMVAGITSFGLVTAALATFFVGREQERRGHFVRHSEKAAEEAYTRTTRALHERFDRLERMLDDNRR

## CCCCCCCC[N+](CCCCCCCC)(CCCCCCCC)CCCCCCCC [tetraoctylammonium]
KcsA
  Kd: 180 nM
W67 KcsA
  Kd: 107 nM

B1: wild-type KcsA potassium channel, P0A334 1-160 (natural protein)
chain: T1 sequence (P0A334 1-160)
[1]
  stoichiometry N: 4

B2: W67 KcsA (quadruple mutant W26, 68, 87, 113F KcsA with a single tryptophan, W67, per subunit) (natural protein, Streptomyces lividans, UniProt P0A334 1-160, looked up)
chain: T1 sequence (P0A334 1-160) with W26F, W68F, W87F, W113F
notes: KcsA, prokaryotic K+ channel from Streptomyces lividans, native Trp residues 26, 68, 87 and 113 mutated to Phe; also called KcsA W26, 68, 87, 113F; W67 mutant channel
[2]
  binding result: binds
